Laboratory results taken from ChEMBL document CHEMBL1147060.
Calls of active or inactive are those of the source. No cut-off for these calls is given here.

Tests used:
[1] = system: Mast cell; experiment: Inhibition of antigen-induced IL6 secretion in mouse mast cells at 1 uM after 24 hrs by ELISA; assay type: functional, cell-based
[2] = system: U-937; experiment: Inhibition of basal TNFalpha release in human U937 cells at 2 uM after 1 hr by ELISA; assay type: functional, cell-based
[3] = system: U-937; experiment: Decrease in LPS-induced TNFalpha release in human U937 cells after 1 hr by ELISA; assay type: functional, cell-based
[4] = species: Homo sapiens; experiment: Inhibition of antigen-induced histamine release in human basophils at 1 uM after 30 mins; assay type: functional
[5] = system: BMMC; experiment: Inhibition of antigen-induced histamine release in wild-type BMMCs at 1 uM after 30 mins; assay type: functional, cell-based; conditions: Mus musculus
[6] = system: U-937; experiment: Decrease in basal TNFalpha release in human U937 cells after 1 hr by ELISA; assay type: functional, cell-based
[7] = system: BMMC; experiment: Inhibition of antigen-induced histamine release in Tec-deficient BMMC at 1 uM after 30 mins; assay type: functional, cell-based; conditions: Mus musculus
[8] = system: U-937; experiment: Inhibition of LPS-induced TNFalpha release in human U937 cells at 2 uM after 1 hr by ELISA; assay type: functional, cell-based

Q: Which Activity [1] does the source give for `Cc1nc(Nc2ncc(C(=O)Nc3c(C)cccc3Cl)s2)cc(N2CCN(CCO)CC2)n1` here?
A: Active

Q: And the Activity [2]?
A: inactive

Q: What about the Activity [3] of the same compound?
A: Active

Q: What about the Activity [4] of the same compound?
A: Active

Q: And the Activity [5]?
A: Active

Q: And the Activity [6]?
A: Active

Q: What about the Activity [7] of the same compound?
A: Active

Q: And the Activity [8]?
A: inactive
